Patent US10406385B2 (Northwestern University, priority 2014, dated 2019)

What was measured:
injured skin = settings: topical application at concentrations of 2-5%; cited from earlier work
[1] = no adverse reactions in any species even at large doses; cited from earlier work
[2] = tested on: Human umbilical vein endothelial cells (HUVEC); assay: Effect of panthenol citrate oligomers on cell viability, HUVEC; assay type: cell-based; settings: higher concentrations (1 mg/ml), 24 hours
Method: Human umbilical vein endothelial cells (HUVEC) (Lonza, Walkersville, Md.), adult human epidermal keratinocytes (HEKa) (Gibco, Carlsbad, Calif.), and human dermal fibroblast (HDF) (Lonza, Walkersville, Md.) were cultured in SmGM-2, Keratinocyte-SFM and DMEM, respectively, in a humidified incubator equilibrated with 5% CO2 at 37° C. Cells were seeded at a density of 1×10^4 cells/ml in 96-well tissue culture plates.

Row | SMILES | regeneration of injured skin (injured skin) | toxicities [1] | HUVEC cell survival [2]
1 | CC(C)(CO)C(O)C(=O)NCCCO (racemic) [panthenol, DL-panthenol] | stimulate the regeneration of injured skin | negligible | –
2 | O=C(O)CC(O)(CC(=O)O)C(=O)O [citric acid, Citric acid] | – | – | died within 24 hours
